Test results: patent US20250091992A1, “NOVEL COMPOUNDS AND USES THEREOF” (KANNA HEALTH LIMITED, priority 2021, published 2025)
Read-outs that look alike come from different tables or passages of the source.

Legend:
[1] = Hepatocyte stability study; format: in vitro ADME; settings: human hepatocytes
Description: The compounds were added at a concentration of 1 μM to human hepatocytes (0.5×10^6 cells/ml in Williams E media supplemented with 2 mM L-glutamine and 25 mM HEPES) and incubated for 0, 5, 10, 20, 40 and 60 min at 37° C. Five replicates were performed for each compound.

[2] = target: T1, human serotonin transporter (Homo sapiens, UniProt P31645); settings: for inhibition: 10 µM;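 on all read-outs here: Read-out: uptake of tritium-labelled serotonin, measured by scintillation counting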
T1 sequence (P31645 whole entry): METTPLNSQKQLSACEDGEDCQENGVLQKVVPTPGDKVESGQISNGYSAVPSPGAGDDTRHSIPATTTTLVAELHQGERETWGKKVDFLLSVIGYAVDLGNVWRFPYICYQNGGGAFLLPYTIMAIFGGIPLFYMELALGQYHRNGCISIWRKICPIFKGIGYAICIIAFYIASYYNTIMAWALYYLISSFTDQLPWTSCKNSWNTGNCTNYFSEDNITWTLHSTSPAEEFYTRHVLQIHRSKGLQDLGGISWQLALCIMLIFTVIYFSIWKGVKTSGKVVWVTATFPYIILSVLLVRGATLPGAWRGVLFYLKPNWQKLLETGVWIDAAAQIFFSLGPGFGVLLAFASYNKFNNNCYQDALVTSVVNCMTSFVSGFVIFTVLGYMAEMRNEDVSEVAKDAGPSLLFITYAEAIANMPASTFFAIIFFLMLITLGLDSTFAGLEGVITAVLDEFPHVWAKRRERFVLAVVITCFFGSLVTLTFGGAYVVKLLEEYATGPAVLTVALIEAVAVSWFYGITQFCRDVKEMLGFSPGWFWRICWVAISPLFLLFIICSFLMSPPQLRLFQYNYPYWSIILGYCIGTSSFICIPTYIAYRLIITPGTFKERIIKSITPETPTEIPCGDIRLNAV
Description: (§6) Following incubation, [^3H] serotonin uptake was quantified by a standard scintillation counting method.

[3] = target: human recombinant PDE-4D2 (Homo sapiens, UniProt Q08499); experiment: PDE4-D2 assay (Compounds of Formula I), SPA; format: biochemical; settings: for IC50: 4-parameter logistical fit, two technical replicates
human recombinant PDE-4D2, sequence (Q08499 303-809): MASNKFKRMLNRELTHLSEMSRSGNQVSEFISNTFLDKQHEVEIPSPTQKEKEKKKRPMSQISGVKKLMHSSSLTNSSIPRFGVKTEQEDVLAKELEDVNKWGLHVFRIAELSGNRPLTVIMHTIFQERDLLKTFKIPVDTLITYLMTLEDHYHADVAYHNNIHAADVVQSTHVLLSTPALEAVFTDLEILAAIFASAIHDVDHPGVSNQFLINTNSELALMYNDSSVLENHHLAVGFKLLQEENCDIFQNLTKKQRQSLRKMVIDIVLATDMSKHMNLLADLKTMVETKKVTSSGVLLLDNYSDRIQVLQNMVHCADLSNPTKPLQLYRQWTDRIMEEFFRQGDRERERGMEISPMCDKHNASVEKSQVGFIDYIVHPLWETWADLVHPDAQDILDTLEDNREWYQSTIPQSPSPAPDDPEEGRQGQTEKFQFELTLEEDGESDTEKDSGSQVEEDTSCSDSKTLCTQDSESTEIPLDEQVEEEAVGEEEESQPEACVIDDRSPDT
Description: (§1) 20 mins after addition of human recombinant PDE-4B1 (1.2 IEU) or PDE-4D2 (1.5 IEU), SPA beads were added and incubated at 22° C. for a further 30 mins. [^3H]5′AMP was quantified by a standard scintillation counting method.

[4] = target: human recombinant PDE-4B1 (Homo sapiens, UniProt Q07343); experiment: PDE4-B1 assay (Compounds of Formula I), SPA; format: biochemical; settings: for IC50: 4-parameter logistical fit, two technical replicates
human recombinant PDE-4B1, sequence (Q07343 whole entry): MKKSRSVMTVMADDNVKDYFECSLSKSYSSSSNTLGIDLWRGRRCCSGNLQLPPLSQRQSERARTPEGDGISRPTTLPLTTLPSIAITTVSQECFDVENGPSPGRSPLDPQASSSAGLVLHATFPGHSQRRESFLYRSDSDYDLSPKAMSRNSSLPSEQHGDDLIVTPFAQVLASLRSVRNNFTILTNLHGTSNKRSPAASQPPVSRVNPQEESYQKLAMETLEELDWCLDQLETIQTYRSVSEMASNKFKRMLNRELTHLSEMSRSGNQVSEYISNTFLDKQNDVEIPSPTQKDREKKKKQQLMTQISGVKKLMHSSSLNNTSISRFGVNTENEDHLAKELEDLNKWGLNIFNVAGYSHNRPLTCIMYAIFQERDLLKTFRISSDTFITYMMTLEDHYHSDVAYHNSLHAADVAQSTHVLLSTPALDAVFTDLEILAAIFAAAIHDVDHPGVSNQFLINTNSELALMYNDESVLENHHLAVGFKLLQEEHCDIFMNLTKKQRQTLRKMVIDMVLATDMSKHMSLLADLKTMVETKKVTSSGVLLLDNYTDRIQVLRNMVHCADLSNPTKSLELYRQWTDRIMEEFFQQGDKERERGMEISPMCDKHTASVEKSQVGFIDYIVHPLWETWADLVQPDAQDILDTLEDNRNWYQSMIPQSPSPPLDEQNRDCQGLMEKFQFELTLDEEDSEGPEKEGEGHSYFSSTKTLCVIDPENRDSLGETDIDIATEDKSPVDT
Description: as §1

IL-10 = experiment: LPS-induced cytokine release from human PBMCs: IL-10; format: cell-based; settings: high concentration (10.0 μM)
Description: (§2) Data were tested for normality.

TNF-α = experiment: LPS-induced cytokine release from human PBMCs: TNF-α; format: cell-based
Description: as §2

in vivo = experiment: in vivo; set-up: species or system male C57Bl/6J mice; settings: male, C57Bl/6J, mouse, ip, 30 mg/kg
Description: Groups of 18 male C57Bl/6J mice (weighing between 22.7 and 27.3 g) received a single administration of test compound (30 mg/kg; i.p.) in methylcellulose (0.5% w/v) at a nominal concentration of […].
Three mice from each dose group were subject to cardiac puncture under general anesthesia at 0.25, 0.50, 1.00, 1.50, 2.00 and 4.00 hours post-dose and plasma samples generated for application of standard LC-MS/MS bioanalytical methods.
Quantitation of compound concentration was derived from reference calibration data. Pharmacokinetic data were derived from serial plasma concentrations.

time spent immobile = experiment: Forced swim test; format: in vivo, male C57Bl/6J mice; settings: 60 minutes before test; for Time spent immobile during forced swim test, Low dose (0.3 mg/kg): 0.3 mg/kg i.p.; for Time spent immobile during forced swim test, High dose (3 mg/kg): 3 mg/kg i.p.
Description: The forced swim test is a standard model for examination of potential antidepressant-like activity and represents futility, despair, and motivation behavioural domains.
(§3) Male C57Bl/6J mice (3-4 months), were assigned to one of three groups receiving either test compound (0.3, 3.0 mg/kg) or vehicle (0.5% (w/v) methyl cellulose) via the i.p. route, 60 minutes before experimental examination.
(§4) The test compounds used were compound identification numbers 6, 13 and 21 from Table 1.
The duration of time the mouse spent immobile during the forced swim test was measured.
(§5) Data were tested for normality and outliers were removed.

[5] = test system: time spent in centre of open field; experiment: Open field test; format: in vivo, male C57Bl/6J mice; settings: for Time spent in centre during open field test, Low dose (0.3 mg/kg): 0.3 mg/kg i.p.; for Time spent in centre during open field test, Low dose (0.3 mg/kg) / Time spent in centre during open field test, High dose (3 mg/kg): 60 minutes before test; for Time spent in centre during open field test, High dose (3 mg/kg): 3 mg/kg i.p.
Description: The open field test is routinely applied in order to assess a compounds ability to affect anxiety, and as such as positive result may be indicative of a compounds anxiolytic activity (Kraeuter et al., 2019).
as §3, §4
The duration of time the mouse spent in central, periphery and corners were quantified, with duration in the central area depicted as the primary outcome measure.
as §5

[6] = target: T1, human serotonin transporter; experiment: cell-based
Description: as §6

IL-1β = experiment: LPS-induced cytokine release from human PBMCs: IL-1β; format: cell-based; settings: high concentration (10.0 μM)
Description: as §2

[7] = naturally occurring; cited from earlier work
PDE-4B = PDE-4B (Homo sapiens, UniProt Q07343); settings: Harvey et al., 2011; cited from earlier work
PDE-4B, sequence (Q07343 whole entry, species assumed): as the sequence (Q07343 whole entry) above

5-HT transporter = 5-HT transporter (Homo sapiens, UniProt P31645); settings: Harvey et al., 2011; cited from earlier work
5-HT transporter, sequence (P31645 whole entry, species assumed): as the sequence (P31645 whole entry) above

[8] = medium (1.0 μM) and high (10.0 μM) concentration

Structure (SMILES)	IC50 [2]	AUC(0-inf) (in vivo)	Cmax (in vivo)	Tmax (in vivo)	half-life (in vivo)	IC50 [6]	IC50 [3]	IC50 [4]	also measured
[2H]C([2H])([2H])Oc1cc([C@@]23CCC(=O)C[C@@H]2N(C)CC3)ccc1OC [Compound 5]	–	–	–	–	–	–	–	–	half-life compared with non-deuterated mesembrine [1]: shorter half-life; hepatocyte CLint at 1 μM ([1]; 1 μM, 37° C., read-out: Qualified Clint): 21.1 µL/min/1e6 cells; half-life at 1 μM ([1]; 1 μM, 37° C., read-out: Qualified t1/2): 65.8 min; inhibition [2]: 98%; inhibition at 30 µM ([3]; 30 μM, relative to Ro 20-1724): 94%; inhibition at 30 µM ([4]; 30 μM, relative to Ro 20-1724): 88%
CCCCOc1cc([C@@]23CCC(=O)C[C@@H]2N(C)CC3)ccc1OC [Compound 2]	0.03 µM	–	–	–	–	–	–	–	Inhibition of IL-10 (significance) (IL-10): statistically significantly inhibited; Inhibition of TNF-α release compared to vehicle (significance) (TNF-α; [8]): inhibited TNF-α release at a statistically significant level
CCOc1ccc([C@@]23CCC(=O)C[C@@H]2N(C)CC3)cc1OCC [Compound 21]	0.03 µM	1830 ng·h/mL	2430 ng/mL	15 min	34.2 min	–	–	–	Time spent immobile during forced swim test, Low dose (0.3 mg/kg) (time spent immobile): 105 s; Time spent immobile during forced swim test, High dose (3 mg/kg) (time spent immobile): 118 s; inhibition [2]: 91%; Time spent in centre during open field test, Low dose (0.3 mg/kg) [5]: 13.7 s; Time spent in centre during open field test, High dose (3 mg/kg) [5]: 9.8 s; Time spent in the centre compared to vehicle (significance) ([5]; low dose of 0.3 mg/kg): statistically significant increase
COc1ccc([C@]23CCC(=O)C=C2N(C)CC3)cc1OC [Compound 40]	–	–	–	–	–	> 3 µM	> 3 µM	> 3 µM	–
CCOc1ccc([C@@]23CCC(=O)C[C@@H]2N(C)CC3)cc1OC1CCCC1 [Compound 27]	0.4 µM	1400 ng·h/mL	831 ng/mL	15 min	58.2 min	–	–	–	Inhibition of TNF-α release compared to vehicle (significance) (TNF-α; [8]): inhibited TNF-α release at a statistically significant level; inhibition [2]: 96%
C=CCOc1cc([C@@]23CCC(=O)C=C2N(C)CC3)ccc1OC [Compound 43]	–	–	–	–	–	> 3 µM	> 3 µM	> 3 µM	–
COc1ccc([C@@]23CCC(=O)C[C@@H]2N(C)CC3)cc1OC1CCCC1 [Compound 11]	0.8 µM	1040 ng·h/mL	796 ng/mL	15 min	56.4 min	–	–	–	Inhibition of IL-10 (significance) (IL-10): statistically significantly inhibited; Inhibition of TNF-α release compared to vehicle (significance) (TNF-α; all concentrations): inhibit TNF-α release at a statistically significant level; Inhibition of IL-β (significance) (IL-1β): statistically significantly inhibited
CCOc1ccc(C23C=CC(=O)CC2N(C)CC3)cc1OCC (centres unmarked) [Compound 44]	–	–	–	–	–	> 3 µM	< 3 µM	< 3 µM	–
COc1ccc([C@@]23CCC(=O)C=C2N(C)CC3)cc1OC1CCCC1 [Compound 42]	–	–	–	–	–	> 3 µM	< 3 µM	> 3 µM	–
COc1ccc([C@@]23CCC(=O)C[C@@H]2N(C)CC3)cc1OC [Mesembrine, mesembrine, reference compound]	–	–	–	–	–	–	–	–	Qualified Clint ([1]; 1 μM, 37° C.): 16.3 μl/min/10^6 cells; Qualified t1/2 ([1]; 1 μM, 37° C.): 84.8; solubility in water [7]: scarcely soluble in water
C=CCOc1cc([C@@]23CCC(=O)C[C@@H]2N(C)CC3)ccc1OC [Compound 13]	0.02 µM	2100 ng·h/mL	2330 ng/mL	15 min	40.2 min	–	–	–	Time spent immobile during forced swim test, Low dose (0.3 mg/kg) (time spent immobile): 119 s; Time spent immobile during forced swim test, High dose (3 mg/kg) (time spent immobile): 138 s; inhibition [2]: 100%; Time spent in centre during open field test, Low dose (0.3 mg/kg) [5]: 10.6 s; Time spent in centre during open field test, High dose (3 mg/kg) [5]: 8.8 s
COc1ccc([C@@]23CCC(=O)C[C@@H]2N(C)CC3)cc1OCC(F)(F)F [Compound 4]	–	–	–	–	–	< 0.1 µM	11.3 µM	7.1 µM	–
COc1ccc([C@@]23CCC(=O)C=C2N(C)CC3)cc1OC [Compound 41]	–	–	–	–	–	< 3 µM	> 3 µM	> 3 µM	–
COc1ccc([C@@]23CCC(=O)C[C@@H]2N(C)CC3)cc1OCC1CC1 [Compound 1]	–	–	–	–	–	–	–	–	Inhibition of IL-10 (significance) (IL-10): statistically significantly inhibited; Inhibition of TNF-α release compared to vehicle (significance) (TNF-α; [8]): inhibited TNF-α release at a statistically significant level; Inhibition of IL-β (significance) (IL-1β): statistically significantly inhibited
CCOc1cc([C@@]23CCC(=O)C[C@@H]2N(C)CC3)ccc1OC [Compound 6]	0.002 µM	1960 ng·h/mL	2610 ng/mL	15 min	33.6 min	–	–	–	Time spent immobile during forced swim test, Low dose (0.3 mg/kg) (time spent immobile): 116 s; Time spent immobile during forced swim test, High dose (3 mg/kg) (time spent immobile): 88 s; Time spent in centre during open field test, Low dose (0.3 mg/kg) [5]: 9.4 s; Time spent in centre during open field test, High dose (3 mg/kg) [5]: 8.6 s
COc1ccc([C@@]23C=C[C@@H](O)C[C@@H]2N(C)CC3)cc1OC [mesembrenol]	–	–	–	–	–	–	–	–	activity against PDE-4B (PDE-4B): potently active; activity in 5-HT transporter binding assay (5-HT transporter): potently active
